Counter-ions that a name gives are not always drawn.
Tested on: i.v. Capsaicin Induced Bronchoconstriction
Experiment: Inhibition of i.v. capsaicin induced bronchoconstriction in anesthetized guinea pigs
Assay type: in vivo
Details: Cavia porcellus, intra-tracheal dosing 1 hour before capsaicin 20 ug/kg i.v., estimated from dose response 0.005-5 mg/kg
Method: Male Hartley Guinea Pigs weighing between 400 and 700 g were anesthetized with ketamine/xylazine mixture (88/15 mg/kg, i.m.). Animals were placed on their back, a toe pinch was performed to ensure depth of anaesthesia and a section of skin and fur was dissected away from the neck. The trachea, jugular vein, and carotid artery were isolated and cannulated to allow for ventilation, drug delivery, and blood pressure monitoring. Compounds were delivered via intra-tracheal delivery (in 200 uL of 0.5% Tween 80) 1 hour before capsaicin challenge. Depth of anaesthesia was confirmed by toe pinch and the Guinea pigs were placed in the full body plethysmograph. The chamber was closed and the animal was paralyzed by administration of Gallamine (2 mg/kg i.v.). Animals were ventilated at ˜1.0 mL/110 g, 60-65 breaths per minute by a Harvard Apparatus rodent respirator. Blood pressure and heart rate were continuously monitored to assess the level of anaesthesia, with supplemental anaesthetic doses given as required to maintain the proper level of anaesthesia. […] The BioWindow Cardio Pulmonary Software version 1.02 (Modular Instruments, Inc.) recorded arterial pressure, pulmonary pressure and airflow. Air pressure delta (difference between maximum and minimum air pressure) was used as the primary readout of inhibition of the capsaicin induced bronchoconstriction. […]

Compound	ED50
Cl.Fc1ccc(O[C@H]2C[C@H](NCc3cccn4ccnc34)C2)cc1C(F)(F)F [Example 7A, trans-3-{[4-Fluoro-3-(trifluoromethyl)phenyl]oxy}-N-(imidazo[1,2-a]pyridin-8-ylmethyl)cyclobutanamine, hydrochloride salt]	0.033 mg/kg

Same assay, conditions: dose 30 ug/kg intra-tracheal, 1 hour before capsaicin 20 ug/kg i.v., n=3

Compound	inhibition of capsaicin induced bronchoconstriction
OCc1ccc(CN[C@H]2C[C@H](Oc3cccc(Cl)c3Cl)C2)c2nccn12 [Example 13, {8-[({trans-3-[(2,3-Dichlorophenyl)oxy]cyclobutyl}amino)methyl]imidazo[1,2-a]pyridin-5-yl}methanol]	61% (+/−16.6%)

Tested on: not listed separately
Experiment: Solubility in simulated lung fluid
Assay type: physicochemical
Details: Phosphate buffer, pH 6.9, 0.75 mM lecithin, 0.1% BSA, 37° C. over 4 hours

solubility at 4 h	Compound
1780 µg/mL	Fc1ccc(O[C@H]2C[C@H](NCc3cccn4ccnc34)C2)cc1C(F)(F)F.O=C(O)/C=C\C(=O)O [Example 7B, trans-3-{[4-Fluoro-3-(trifluoromethyl)phenyl]oxy}-N-(imidazo[1,2-a]pyridin-8-ylmethyl)cyclobutanamine, maleate salt]

Target: T1, TRPV1 receptor (Homo sapiens, UniProt Q8NER1)
T1 construct: expressed in transfected cells; host or cells: HEK-293 cells stably expressing mitochondrial targeted Aequorin, transduced with TRPV1 BacMam
Experiment: Capsaicin assay for TRPV1 receptor antagonism (aequorin luminescence, HEK-293 cells expressing TRPV1)
Assay type: cell-based
Details: HEK-293 cells expressing TRPV1, pH 7.4, challenge with 4×EC50 capsaicin, 15 min preincubation; read-out: pIC50 in the Capsaicin assay (converted)
Method: Assays for the functional inhibition of TRPV1 Ion Channel by test compound using Capsaicin or Acid Stimulus challenge were performed.
Compounds were dissolved in DMSO to 1 mM. An 11 point 4 fold serial dilution was prepared and 0.5 ul dispensed into Greiner black clear bottom 384 well plates.
HEK-293 cells stably expressing mitochondrial targeted Aequorin were transfected with TRPV1 receptor bacmam at scale for cryopreservation in 1 ml vial aliquots. Cells can be stored at −140° C. for up to 18 months.
18-20 hours before assay, cells were rapidly thawed in a water bath at 37° C. and transferred to a 50 ml Falcon tube. Cells were resuspended in 9 mls of M1 ‘generic’ media (DMEM/F12 with 10% dialysed FBS-Invitrogen 041-95750V) for every 1 ml cells and then centrifuged for 5 min at 1000 rpm. The cell pellet was resuspended in ˜10 mls loading buffer (Tyrodes Base Buffer*+0.1% Pluronic Acid F68 solution+0.1% BSA) and the pH was adjusted to 7.4 for Capsaicin stimulus assay or 6.7 for Acid stimulus assay. Cell density was calculated using the Trypan Blue stain method and adjusted to 2.5×10 e6 cells/ml using loading buffer. Coelentrazine (DiscoverX Cat. No 0-0084L-500 uM stock made in 100% ethanol) was added to a final concentration of 5 uM and the falcon tube was covered in foil (to protect from light) and placed on a windmill rotator at room temperature for approximately 20 hours. *Base Buffer=Sigma kit T2145 was dissolved in deionised water, 20 mL HEPES solution (Sigma H0887) and 13.4 mL of NaHCO3 (Sigma S8761) and made up to 1 L.
After loading, a cell count was taken and cell density adjusted accordingly depending on assay stimulus.
For Capsaicin stimulus assay cells were diluted to 1.25×10 e5 cells/ml using dilution buffer (Tyrodes Base Buffer+0.1% Pluronic Acid F68 solution) at pH 7.4
To the compound plates, the following additions were made:
20 ul dilution buffer at pH 7.4 followed by 20 ul cells were added to the test compound plate and any agonist activity measured as luminescence AUC counts. The compound/cell mix was incubated for 15 minutes and then challenged with 20 ul of a 4×EC50 concentration of Capsaicin (calculated on the day of assay), with concomitant luminescence detection.
AUC data was exported from the reader and data analysis was performed using 4 parameter logistic model, with data normalised to nominal high and low controls within plate.

T1 sequence (Q8NER1 whole entry): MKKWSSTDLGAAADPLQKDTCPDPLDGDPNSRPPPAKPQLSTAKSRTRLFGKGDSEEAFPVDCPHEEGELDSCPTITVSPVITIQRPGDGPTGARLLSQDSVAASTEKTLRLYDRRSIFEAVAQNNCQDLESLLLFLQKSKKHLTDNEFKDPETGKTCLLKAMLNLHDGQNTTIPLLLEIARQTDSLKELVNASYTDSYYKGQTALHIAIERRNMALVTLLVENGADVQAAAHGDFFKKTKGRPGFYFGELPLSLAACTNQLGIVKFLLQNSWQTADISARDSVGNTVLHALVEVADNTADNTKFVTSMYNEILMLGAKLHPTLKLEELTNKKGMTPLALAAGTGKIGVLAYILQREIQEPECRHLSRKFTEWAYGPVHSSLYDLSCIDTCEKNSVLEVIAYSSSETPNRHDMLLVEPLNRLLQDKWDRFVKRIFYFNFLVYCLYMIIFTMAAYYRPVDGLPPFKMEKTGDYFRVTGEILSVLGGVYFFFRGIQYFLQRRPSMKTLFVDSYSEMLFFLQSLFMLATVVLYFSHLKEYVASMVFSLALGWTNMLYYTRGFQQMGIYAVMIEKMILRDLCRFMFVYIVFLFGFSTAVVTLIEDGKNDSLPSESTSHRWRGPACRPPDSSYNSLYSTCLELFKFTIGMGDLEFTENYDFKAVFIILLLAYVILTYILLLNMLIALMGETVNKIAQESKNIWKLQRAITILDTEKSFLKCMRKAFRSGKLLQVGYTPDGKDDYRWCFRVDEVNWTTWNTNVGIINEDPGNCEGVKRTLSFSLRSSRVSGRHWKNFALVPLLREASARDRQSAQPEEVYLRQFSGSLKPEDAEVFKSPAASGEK

IC50	Compound
0.00126 to 0.1 µM	FC(F)(F)c1ccc(O[C@H]2C[C@H](NCc3cccn4ccnc34)C2)c(Cl)c1 [Example 8, trans-3-{[2-Chloro-4-(trifluoromethyl)phenyl]oxy}-N-(imidazo[1,2-a]pyridin-8-ylmethyl)cyclobutanamine]
0.00126 to 0.1 µM	FC(F)(F)c1cccc(O[C@H]2C[C@H](NCc3cccn4ccnc34)C2)c1 [Example 1, trans-N-(Imidazo[1,2-a]pyridin-8-ylmethyl)-3-{[3-(trifluoromethyl)phenyl]oxy}cyclobutanamine]
0.00126 to 0.1 µM	OCc1ccc(CN[C@H]2C[C@H](Oc3ccc(F)c(C(F)(F)F)c3)C2)c2nccn12 [Example 14, (8-{[(trans-3-{[4-Fluoro-3-(trifluoromethyl)phenyl]oxy}cyclobutyl)amino]methyl}imidazo[1,2-a]pyridin-5-yl)methanol]
0.00126 to 0.1 µM	CC(C)(C)c1c(F)cc(O[C@H]2C[C@H](NCc3cccn4ccnc34)C2)cc1F [Example 11, trans-3-{[4-(1,1-Dimethylethyl)-3,5-difluorophenyl]oxy}-N-(imidazo[1,2-a]pyridin-8-ylmethyl)cyclobutanamine]
0.00126 to 0.1 µM	OCc1ccc(CN[C@H]2C[C@H](Oc3cccc(Cl)c3Cl)C2)c2nccn12 [Example 13, {8-[({trans-3-[(2,3-Dichlorophenyl)oxy]cyclobutyl}amino)methyl]imidazo[1,2-a]pyridin-5-yl}methanol]
0.00126 to 0.1 µM	Fc1ccc(O[C@H]2C[C@H](NCc3cccn4ccnc34)C2)cc1Cl [Example 5, trans-3-[(3-Chloro-4-fluorophenyl)oxy]-N-(imidazo[1,2-a]pyridin-8-ylmethyl)cyclobutanamine, trifluoroacetate]
0.00126 to 0.1 µM	OCc1cnc2c(CN[C@H]3C[C@H](Oc4cccc(Cl)c4Cl)C3)cccn12 [Example 15, {8-[({trans-3-[(2,3-Dichlorophenyl)oxy]cyclobutyl}amino)methyl]imidazo[1,2-a]pyridin-3-yl}methanol]
0.00126 to 0.1 µM	Clc1cccc(O[C@H]2C[C@H](NCc3cccn4ccnc34)C2)c1Cl [Example 2, trans-3-[(2,3-Dichlorophenl)oxy]-N-(imidazo[1,2-a]pyridin-8-ylmethyl)cyclobutanamine]
0.00126 to 0.1 µM	FC(F)(F)c1cc(O[C@H]2C[C@H](NCc3cccn4ccnc34)C2)ccc1Cl [Example 6, trans-3-{[4-Chloro-3-(trifluoromethyl)phenyl]oxy}-N-(imidazo[1,2-a]pyridin-8-ylmethyl)cyclobutanamine]
0.00126 to 0.1 µM	FC(F)(F)c1cccc(O[C@H]2C[C@H](NCc3cccn4ccnc34)C2)c1Cl [Example 4, trans-3-{[2-Chloro-3-(trifluoromethyl)phenyl]oxy}-N-(imidazo[1,2-a]pyridin-8-ylmethyl)cyclobutanamine]
0.00126 to 0.1 µM	FC(F)(F)c1cc(Cl)ccc1O[C@H]1C[C@H](NCc2cccn3ccnc23)C1 [Example 9, trans-3-{[4-Chloro-2-(trifluoromethyl)phenyl]oxy}-N-(imidazo[1,2-a]pyridin-8-ylmethyl)cyclobutanamine]
0.00126 to 0.1 µM	CC(C)(C)c1c(F)cc(O[C@H]2C[C@@H](NCc3cccn4ccnc34)C2)cc1F [Example 12, cis-3-{[4-(1,1-Dimethylethyl)-3,5-difluorophenyl]oxy}-N-(imidazo[1,2-a]pyridin-8-ylmethyl)cyclobutanamine]
0.00126 to 0.1 µM	Fc1ccc(O[C@H]2C[C@H](NCc3cccn4ccnc34)C2)cc1C(F)(F)F [Example 7, trans-3-{[4-Fluoro-3-(trifluoromethyl)phenyl]oxy}-N-(imidazo[1,2-a]pyridin-8-ylmethyl)cyclobutanamine]

Reference: US8754101B2, “N-cyclobutyl-imidazopyridine-methylamine as TRPV1 antagonists” (Glaxo Group Limited, priority 2011, dated 2014)
